PubChem BioAssay AID232 (DTP/NCI, 2004)
Where “and” joins values, the source holds several entries; their conditions need not be identical. Equal entries are not always repeated. Inconclusive results and toxic doses are left out. The calls were made as follows: active = survival T/C of 150% or more; inactive = T/C below 125% in these data.

Tested on: Gardner 6C3HED lymphosarcoma ip, C3AKF1 mice, survival T/C
Experiment: NCI In Vivo Anticancer Drug Screen. Data for tumor model Lymphosarcoma Gardner 6C3HED (intraperitoneal) in C3AKF1 (CHKRF1) mice
Conditions: endpoint: survival time, mean or median, higher = longer survival
Description: The antitumor activity of compounds was measured in mice bearing transplantable tumors. Survival or tumor size were measured and the results are expressed as the measurement made in the treated group (T) divided by the measurement made in the vehicle treated control group (C). The tumor model used in this assay is Lymphosarcoma Gardner 6C3HED (intraperitoneal) in C3AKF1 (CHKRF1) mice

Measured: T/C

CC/C(=C(/CC)c1ccc(O)cc1)c1ccc(O)cc1
inactive: dose: 12.5 mg/kg/injection, schedule: Q01DX010 (sc), vehicle: steriod suspending solution 104 % of control and 105 % of control | dose: 25.0 mg/kg/injection, schedule: Q01DX010 (sc), vehicle: steriod suspending solution 100 % of control and 105 % of control | dose: 50.0 mg/kg/injection, schedule: Q01DX010 (sc), vehicle: steriod suspending solution 95 % of control and 100 % of control | dose: 100.0 mg/kg/injection, schedule: Q01DX010 (sc), vehicle: steriod suspending solution 95 % of control and 100 % of control

CS(=O)(=O)OCCCCOS(C)(=O)=O
inactive: dose: 1.56 mg/kg/injection, schedule: Q01DX010 (ip), vehicle: saline 100 % of control | dose: 3.13 mg/kg/injection, schedule: Q01DX010 (ip), vehicle: saline 100 % of control and 104 % of control

Nc1nc(SCc2ccccc2)c2[nH]cnc2n1
inactive: dose: 8.0 mg/kg/injection, schedule: Q01DX010 (ip), vehicle: saline 95 % of control and 100 % of control | dose: 16.0 mg/kg/injection, schedule: Q01DX010 (ip), vehicle: saline 95 % of control and 104 % of control | dose: 32.0 mg/kg/injection, schedule: Q01DX010 (ip), vehicle: saline 90 % of control and 91 % of control and 104 % of control | dose: 64.0 mg/kg/injection, schedule: Q01DX010 (ip), vehicle: saline 87 % of control and 100 % of control (2×)

C[C@H](N)C(=O)N[C@@H]1[C@H]2C(=C(O)C[C@@H](O)[C@@H]2O)C(=O)O[C@@H]1C
inactive: dose: 150.0 mg/kg/injection, schedule: Q01DX010 (ip), vehicle: saline 110 % of control | dose: 300.0 mg/kg/injection, schedule: Q01DX010 (ip), vehicle: saline 110 % of control and 115 % of control | dose: 600.0 mg/kg/injection, schedule: Q01DX010 (ip), vehicle: saline 120 % of control | dose: 1200.0 mg/kg/injection, schedule: Q01DX010 (ip), vehicle: saline 115 % of control and 120 % of control

S=P(N1CCOCC1)(N1CC1)N1CC1
inactive: dose: 2.5 mg/kg/injection, schedule: Q01DX010 (ip), vehicle: saline 91 % of control and 100 % of control (2×) | dose: 5.0 mg/kg/injection, schedule: Q01DX010 (ip), vehicle: saline 91 % of control and 92 % of control and 104 % of control | dose: 10.0 mg/kg/injection, schedule: Q01DX010 (ip), vehicle: saline 89 % of control and 91 % of control and 104 % of control | dose: 20.0 mg/kg/injection, schedule: Q01DX010 (ip), vehicle: saline 108 % of control and 121 % of control
